Patent publication US8268881B2, “Carboxamide derivatives as muscarinic receptor antagonists” (Pfizer Limited, priority 2005, dated 2012)
pKi: −log10 of the molar value.

Biological target: T1, human muscarinic M3 receptor (Homo sapiens, UniProt P20309)
T1 construct: expressed in transfected cells
Experiment: hM3 β-Lac potency assay (cell based β-lactamase)
Settings: CHO cells expressing human M3 receptor, NFAT β-lactamase reporter; […]; IC50 converted to Ki by Cheng-Prusoff; read-out: Cell based β-lactamase M3 Ki
Protocol: M3 potency was determined in CHO-K1 cells transfected with the NFAT-Betalactamase gene. CHO (Chinese Hamster Ovary) cells recombinantly expressing the human muscarinic M3 receptor were transfected with the NFAT_β-Lac_Zeo plasmid.
The cells were re-suspended at 2×10^5 cells/ml in growth medium (composition as described above). […] Inhibition curves were plotted and IC50 values generated using a 4-parameter sigmoid fit and converted to Ki values using the Cheng-Prusoff correction and the KD value for carbamyl choline in the assay.

T1 sequence (P20309 whole entry): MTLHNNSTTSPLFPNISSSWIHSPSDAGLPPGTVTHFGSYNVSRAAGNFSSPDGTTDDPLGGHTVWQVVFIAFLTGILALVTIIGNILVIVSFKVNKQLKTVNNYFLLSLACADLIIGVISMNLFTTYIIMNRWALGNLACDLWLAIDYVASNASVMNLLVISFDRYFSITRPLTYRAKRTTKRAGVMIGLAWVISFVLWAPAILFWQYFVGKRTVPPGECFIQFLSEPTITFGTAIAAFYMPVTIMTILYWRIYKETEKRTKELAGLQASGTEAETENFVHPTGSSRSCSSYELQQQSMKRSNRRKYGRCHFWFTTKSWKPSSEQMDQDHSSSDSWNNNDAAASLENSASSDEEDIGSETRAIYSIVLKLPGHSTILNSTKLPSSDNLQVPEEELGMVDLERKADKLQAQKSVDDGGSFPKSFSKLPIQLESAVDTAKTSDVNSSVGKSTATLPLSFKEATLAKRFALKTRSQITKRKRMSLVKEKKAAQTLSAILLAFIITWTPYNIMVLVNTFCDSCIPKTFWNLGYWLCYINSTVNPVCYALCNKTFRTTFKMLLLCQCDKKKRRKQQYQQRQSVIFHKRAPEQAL

SMILES	pKi
COc1cccc(OC2CN(C(C)(C)CCC(C#N)(c3ccccc3)c3ccccc3)C2)c1 [Example 99, 5-[3-(3-Methoxyphenoxy)azetidin-1-yl]-5-methyl-2,2-diphenylhexanenitrile]	7.18
CC(C)(CCC(C#N)(c1ccccc1)c1ccccc1)N1CCC(OCc2cccc(O)c2)CC1 [Example 88, 5-{4-[(3-Hydroxybenzyl)oxy]piperidin-1-yl}-5-methyl-2,2-diphenylhexanenitrile]	7.14
CC(C)(CCC(C#N)(c1ccccc1)c1ccccc1)N1CC[C@H](Oc2ccccc2)C1 [Example 1, 5-Methyl-5-[(3S)-3-phenoxypyrrolidin-1-yl]-2,2-diphenylhexanenitrile]	8.08

Same assay, conditions: CHO cells expressing human M3 receptor, NFAT β-lactamase reporter; inhibition of 80 nM carbamyl choline signal, 4 h; IC50 converted to Ki by Cheng-Prusoff; read-out: Cell based β-lactamase M3 Ki

pKi	SMILES
7.11	CC(C)(CCC(C(N)=O)(c1ccccc1)c1ccccc1)N1CC(Oc2cc(Cl)c(Cl)cc2O)C1 [Example 111, 5-{3-(4,5-Dichloro-2-hydroxy-phenoxy)-azetidin-1-yl}-5-methyl-2,2-diphenylhexanamide]
7.66	COc1c(Cl)cccc1O[C@@H]1CCN(C(C)(C)CCC(C(N)=O)(c2ccccc2)c2ccccc2)C1 [Example 42, 5-[(3R)-3-(3-Chloro-2-Methoxy-phenoxy)-pyrrolidin-1-yl]-5-methyl-2,2-diphenyl-hexanoic acid amide]
8.16	CC(C)(CCC(C(N)=O)(c1ccccc1)c1ccccc1)N1CC[C@H](Oc2ccc(-c3cccc(O)c3)cc2)C1 [Example 18, 5-{(3S)-3-[(3′-Hydroxybiphenyl-4-yl)oxy]pyrrolidin-1-yl}-5-methyl-2,2-diphenylhexanamide]
8.98	CC(C)(CCC(C#N)(c1ccccc1)c1ccccc1)N1CC(Oc2cccc(O)c2)C1 [Example 150, 5-[3-(3-Hydroxy-phenoxy)-azetidin-1-yl]-5-methyl-2,2-diphenyl-hexanenitrile]
9.04	CC(C)(CCC(C(N)=O)(c1ccccc1)c1ccccc1)N1CC[C@@H](Oc2cccc(O)c2Cl)C1 [Example 78, 5-[(3R)-3-(2-Chloro-3-hydroxy-phenoxy)-pyrrolidin-1-yl]-5-methyl-2,2-diphenylhexanamide]
7.79	CC(C)(CCC(C(N)=O)(c1ccccc1)c1ccccc1)N1CC[C@@H](OCc2ccc(Cl)c(O)c2)C1 [Example 79, 5-[(3R)-3-(4-Chloro-3-hydroxy-benzyloxy)-pyrrolidin-1-yl]-5-methyl-2,2-diphenyl hexanamide]
8.16	COc1cccc(CO[C@H]2CCN(C(C)(C)CCC(C(N)=O)(c3ccccc3)c3ccccc3)C2)c1 [Example 84, 5-[(3S)-3-(3-methoxy-benzyloxy)pyrrolidin-1-yl]-5-methyl-2,2-diphenylhexanamide]
7.97	CC(C)(CCC(C(N)=O)(c1ccccc1)c1ccccc1)N1CC(Oc2ccccc2O)C1 [Example 109, 5-[3-(2-Hydroxyphenoxy)azetidin-1-yl]-5-methyl-2,2-diphenylhexanamide]
8.27	NC(=O)C(CCC1(N2CC(Oc3ccc(Cl)c(O)c3)C2)CCCC1)(c1ccccc1)c1ccccc1 [Example 139, 4-{1-[3-(4-Chloro-3-hydroxy-phenoxy)-azetidin-1-yl]-cyclopentyl}-2,2-diphenyl-butyramide]
9.37	COc1cccc(OC2CN(C(C)(C)CCC(C(N)=O)(c3ccccc3)c3ccccc3)C2)c1 [Example 100, 5-[3-(3-Methoxyphenoxy)azetidin-1-yl]-5-methyl-2,2-diphenylhexanamide]
8.78	CC(C)(CCC(C(N)=O)(c1ccccc1)c1ccccc1)N1CC[C@@H](Oc2ccc(C(F)(F)F)cc2)C1 [Example 26, 5-[(3R)-3-(4-trifluoromethyl-phenoxy)pyrrolidin-1-yl]-5-methyl-2,2-diphenylhexanamide]
9.48	CC(C)(CCC(C(N)=O)(c1ccccc1)c1ccccc1)N1CC[C@H](Oc2cccc(O)c2F)C1 [Example 53, 5-[(3S)-3-(2-Fluoro-3-Hydroxy-phenoxy)-pyrrolidin-1-yl]-5-methyl-2,2-diphenyl-hexanoic acid amide]
7.65	CC(C)(CCC(C(N)=O)(c1ccccc1)c1ccccc1)N1CCC(OCc2cccc(Br)c2)CC1 [Example 91, 5-{4-[(3-Bromobenzyl)oxy]piperidin-1-yl}-5-methyl-2,2-diphenylhexanamide]
6.80	CC(C)(CCC(C#N)(c1ccccc1)c1ccccc1)N1CCC(OCc2ccccc2)CC1 [Example 89, 5-[4-(Benzyloxy)piperidin-1-yl]-5-methyl-2,2-diphenylhexanenitrile]
6.86	CC(C)(CCC(C(N)=O)(c1ccccc1)c1ccccc1)N1CCC(OCc2cccc(-c3cccc(O)c3)c2)CC1 [Example 98, 5-{4-[(3′-hydroxybiphenyl-3-yl)methoxy]piperidin-1-yl}-5-methyl-2,2-diphenylhexanamide]
7.24	CC(C)(CCC(C#N)(c1ccccc1)c1ccccc1)N1CC[C@H](OCc2cccc(-c3ccc(O)cc3)c2)C1 [Example 62, 5-[(3S)-3-[(4′-Hydroxybiphenyl-3-yl)methoxy]-pyrrolidin-1-yl]5-methyl-2,2-diphenylhexanenitrile]
7.97	CC(C)(CCC(C(N)=O)(c1ccccc1)c1ccccc1)N1CC[C@@H](OCc2ccc(F)c(O)c2)C1 [Example 67, 5-[(3R)-3-(4-Fluoro-3-hydroxy-benzyloxy)-pyrrolidin-1-yl]-5-methyl-2,2-diphenylhexanamide]
8.27	CC(C)(CCC(C(N)=O)(c1ccccc1)c1ccccc1)N1CC[C@@H](Oc2cccc(Cl)c2O)C1 [Example 43, 5-[(3R)-3-(3-Chloro-2-Hydroxy-phenoxy)-pyrrolidin-1-yl]-5-methyl-2,2-diphenyl-hexanoic acid amide]
9.45	CC(C)(CCC(C(N)=O)(c1ccccc1)c1ccccc1)N1CC(OCc2cccc(O)c2Cl)C1 [Example 148, 5-[3-(2-Chloro-3-hydroxy-benzyloxy)-azetidin-1-yl]-5-methyl-2,2-diphenyl-hexanoic acid amide]
7.54	CC(C)(CCC(C(N)=O)(c1ccccc1)c1ccccc1)N1CC[C@H](OCc2cccc(-c3ccc(O)cc3)c2)C1 [Example 63, 5-{(3S)-3-[(4′-Hydroxybiphenyl-3-yl)methoxy]pyrrolidin-1-yl}-5-methyl-2,2-diphenylhexanamide]

The next lines start with the compound.

SMILES	pKi
Cc1cc(O)c(C)c(O[C@H]2CCN(C(C)(C)CCC(C(N)=O)(c3ccccc3)c3ccccc3)C2)c1 [Example 44, 5-[(3S)-3-(3-Hydroxy-2,5-dimethyl-phenoxy)-pyrrolidin-1-yl]-5-methyl-2,2-diphenyl-hexanoic acid amide]	7.49
CC(C)(CCC(C(N)=O)(c1ccccc1)c1ccccc1)N1CC(OCc2ccc(Cl)cc2O)C1 [Example 147, 5-[3-(4-Chloro-2-hydroxy-benzyloxy)-azetidin-1-yl]-5-methyl-2,2-diphenyl-hexanoic acid amide]	7.48
COc1cc(Cl)ccc1O[C@H]1CCN(C(C)(C)CCC(C(N)=O)(c2ccccc2)c2ccccc2)C1 [Example 35, 5-[(3S)-3-(4-Chloro-2-Methoxy-phenoxy)-pyrrolidin-1-yl]-5-methyl-2,2-diphenyl-hexanoic acid amide]	8.14
CC(C)(CCC(C(N)=O)(c1ccccc1)c1ccccc1)N1CCC(Oc2ccccc2)CC1 [Example 90, 5-Methyl-5-(4-Phenoxypiperidin-1-yl)-2,2-diphenylhexanamide]	9.57
CC(C)(CCC(C(N)=O)(c1ccccc1)c1ccccc1)N1CC[C@@H](OCc2cccc(O)c2)C1 [Example 54, 5-[(3R)-3-(3-Hydroxy-benzyloxy)-pyrrolidin-1-yl]-5-methyl-2,2-diphenyl-hexanoic acid amide]	8.44
CC(C)(CCC(C(N)=O)(c1ccccc1)c1ccccc1)N1CC[C@H](OCc2cccc(-c3ccccc3)c2)C1 [Example 66, 5-[(3S)-3-(Biphenyl-3-ylmethoxy)pyrrolidin-1-yl]-5-methyl-2,2-diphenylhexanamide]	7.34
CC(C)(CCC(C(N)=O)(c1ccccc1)c1ccccc1)N1CC(Oc2ccc(Cl)c(O)c2)C1 [Example 114, 5-[3-(4-Chloro-3-hydroxy-phenoxy)-azetidin-1-yl]-5-methyl-2,2-diphenylhexanamide]	8.71
CC(C)(CCC(C(N)=O)(c1ccccc1)c1ccccc1)N1CC[C@@H](Oc2cc(O)cc(F)c2)C1 [Example 74, 5-[(3R)-3-(3-Fluoro-5-hydroxy-phenoxy)-pyrrolidin-1-yl]-5-methyl-2,2-diphenyl-hexanamide]	> 9.25
COc1cc(O[C@H]2CCN(C(C)(C)CCC(C(N)=O)(c3ccccc3)c3ccccc3)C2)ccc1F [Example 50, 5-[(3S)-3-(4-Fluoro-3-Methoxy-phenoxy)-pyrrolidin-1-yl]-5-methyl-2,2-diphenyl-hexanoic acid amide]	8.50
CC(C)(CCC(C(N)=O)(c1ccccc1)c1ccccc1)N1CC[C@H](Oc2ccc(-c3ccccc3)cc2)C1 [Example 71, 5-[(3S)-3-(4-Phenylphenoxy)pyrrolidin-1-yl]-5-methyl-2,2-diphenylhexanamide]	6.95
CC(C)(CCC(C(N)=O)(c1ccccc1)c1ccccc1)N1CCC(OCc2ccccc2)CC1 [Example 92, 5-[4-(Benzyloxy)piperidin-1-yl]-5-methyl-2,2-diphenylhexanamide]	8.67
CC(C)(CCC(C(N)=O)(c1ccccc1)c1ccccc1)N1CC[C@@H](Oc2ccc3ncoc3c2)C1 [Example 15, 5-[(3R)-3-(1,3-Benzoxazol-6-yloxy)pyrrolidin-1-yl]5-methyl-2,2-diphenylhexanamide]	8.37
CC(C)(CCC(C(N)=O)(c1ccccc1)c1ccccc1)N1CC[C@H](Oc2ccc(C(F)(F)F)cc2)C1 [Example 24, 5-[(3S)-3-(4-trifluoromethyl-phenoxy)pyrrolidin-1-yl]-5-methyl-2,2-diphenylhexanamide]	7.68
